According to patent US20200230247A1, “COMBINATION THERAPIES COMPRISING TARGETED THERAPEUTICS” (TARVEDA THERAPEUTICS, INC., priority 2017, published 2020):

Tested on: NCI-H69 (small cell lung cancer) tumors
Test: Antitumor efficacy in mice bearing NCI-H69 tumors
Assay type: in vivo
Details: Conjugate 1 12.5 mpk once per week IV, Talazoparib 0.33 mpk PO daily 4 days on/three days off, combo: Talazoparib starting 24 hrs post Conjugate 1 dose, tumor volumes measured up to 16 days after treatment
Description: Mice bearing NCI-H69 (small cell lung cancer) tumors were treated with the following.
1). Vehicle controls; 2). 12.5 mpk (mg per kilogram) of Conjugate 1 once per week via intravenous administration (IV); 3). 0.33 mpk Talazoparib daily for 4 days on/three days off via oral administration (PO); 4). 12.5 mpk Conjugate 1 once per week via IV, and 0.33 mpk Talazoparib daily for 4 days on/three days off starting 24 hrs post Conjugate 1 dose.
Tumor volumes were measured 3 days, 8 days, 10 days, 13 days and 16 days after treatment.

Row | SMILES | Tumor Growth Inhibition (TGI %) [%]
1 | CCc1c2c(nc3ccc(OC(=O)N4CCC(CCn5ccc6cc(-n7c(O)nnc7-c7cc(C(C)C)c(O)cc7O)ccc65)CC4)cc13)-c1cc3c(c(=O)n1C2)COC(=O)[C@]3(O)CC [Conjugate 1, (S)-4,11-diethyl-4-hydroxy-3,14-dioxo-3,4,12,14-tetrahydro-1H-pyrano[3′,4′:6,7]indolizino[1,2-b]quinolin-9-yl 4-(2-(5-(3-(2,4-dihydroxy-5-isopropylphenyl)-5-hydroxy-4H-1,2,4-triazol-4-yl)-1H-indol-1-yl)ethyl)piperidine-1-carboxylate] | 50.67
2 | Cn1ncnc1[C@H]1c2n[nH]c(=O)c3cc(F)cc(c23)N[C@@H]1c1ccc(F)cc1 [Talazoparib, talazoparib] | 15.66
